Patent US20240262830A1, “IRE1A MODULATORS AND USES THEREOF” (Nimbus Iaso, Inc., priority 2020, published 2024)

Assays:
[1] = test system: hIRE1a; experiment: XBP1-Luc cell assay; assay type: cell-based; details: Homo sapiens; HEK293-pLVX-XBP1.fluc-IRES-Puro cells, 600 nM Thapsigargin 1 hour, then inhibitor 6 hours; read-out: fLuc_XBP1_hIRE1a_HEK293_IC50 (IC50)
Procedure: HEK293-pLVX-XBP1.fluc-IRES-Puro cells (ChemPartner) were collected into DMEM (Invitrogen, 11995-065) with 10% FBS (BI, 04-002-1A). Cells were seeded at 1.5E4 cells/well in BioCoat Poly-D-Lysine Black/Clear flat bottom 96 well plate (Corning, 356640) and incubated overnight at 37° C. and 5% CO2. Cells were treated with 600 nM Thapsigargin (Sigma, T9033) for 1 hour at 37° C. and 5% CO2 prior to inhibitor addition. A titration of inhibitor, starting at 30 μM was added to wells for an additional 6 hours at 37° C. and 5% CO2. 100 μl of Steady-Glo Luciferase assay reagent (Promega, E2550) was added to plate and the plate was shaken for 2 minutes. Signal was read using EnSpire (Perkin Elmer).

[2] = molecular target: T1, truncated human IRE1a WT protein, containing the catalytic part (aa 547-977) (Homo sapiens, UniProt O75460); experiment: IRE1a biochemical enzyme splice assay; details: 20 nM protein, 500 nM fluorescently quenched IRE1a substrate, 40 min at room temperature; read-out: EnzymeSplice_hIRE1a_IC50 (IC50)
T1 construct: containing the catalytic part (aa 547-977); made in house
T1 sequence (O75460 547-977): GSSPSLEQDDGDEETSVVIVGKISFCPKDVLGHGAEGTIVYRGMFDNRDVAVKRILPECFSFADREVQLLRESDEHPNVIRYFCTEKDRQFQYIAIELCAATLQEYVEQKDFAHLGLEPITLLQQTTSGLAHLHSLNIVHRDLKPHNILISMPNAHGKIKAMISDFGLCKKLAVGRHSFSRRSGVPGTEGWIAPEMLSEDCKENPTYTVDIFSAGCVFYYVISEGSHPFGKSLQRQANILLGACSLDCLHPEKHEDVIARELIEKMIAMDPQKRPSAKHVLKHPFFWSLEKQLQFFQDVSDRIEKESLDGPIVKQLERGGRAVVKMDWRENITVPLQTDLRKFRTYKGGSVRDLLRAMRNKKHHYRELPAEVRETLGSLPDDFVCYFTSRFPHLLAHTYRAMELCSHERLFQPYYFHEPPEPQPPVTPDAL
Procedure: A truncated human IRE1a WT protein, containing the catalytic part (aa 547-977) was expressed in baculovirus. The purified protein (20 nM) was incubated with a fluorescently quenched IRE1a substrate (500 nM; 5′/6-FAM-CAGUCCGCAGCACUG-BHQ-1/3′) and a titration of inhibitor, starting at 10 μM (final DMSO concentration=1%) for 40 min at room temperature in assay buffer. Reactions were carried out in a final volume of […] in a 384 well assay plate. The reaction was stopped, and the plate was spun for 1 minute at 1000 rpm. The fluorescence intensity of the IRE1a-substrate was measured using an fluorescent plate reader (Ex 485 nm/Em 535 nm, Perkin Elmer Envision).

Row | SMILES | IC50 [1] | IC50 [2]
1 | CCc1cc(-c2ccc3c(NS(=O)(=O)c4ccccc4F)ncnn23)cc2cnc(N[C@H]3CCCNC3)nc12 [Compound I-1, (S)—N-(7-(8-ethyl-2-(piperidin-3-ylamino)quinazolin-6-yl)pyrrolo[2,1-f][1,2,4]triazin-4-yl)-2-fluorobenzenesulfonamide] | < 1000 nM | < 100 nM
2 | CCc1cc(-c2ccc3c(NS(=O)(=O)c4ccccc4C)ncnn23)cc2cnc(N[C@H]3CCCNC3)nc12 [Compound I-2, (S)—N-(7-(8-ethyl-2-(piperidin-3-ylamino)quinazolin-6-yl)pyrrolo[2,1-f][1,2,4]triazin-4-yl)-2-methylbenzenesulfonamide] | < 1000 nM | < 100 nM
3 | CCc1cc(-c2ccc3c(NS(=O)(=O)C4CCCCC4)ncnn23)cc2cnc(N[C@H]3CCCNC3)nc12 [Compound I-3, (S)—N-(7-(8-ethyl-2-(piperidin-3-ylamino)quinazolin-6-yl)pyrrolo[2,1-f][1,2,4]triazin-4-yl)cyclohexanesulfonamide] | < 1000 nM | < 100 nM
4 | CCc1cc(-c2ccc3c(NS(=O)(=O)c4ccccc4Cl)ncnn23)cc2cnc(N[C@H]3CCCC[C@@H]3O)nc12 [Compound I-4, 2-chloro-N-(7-(8-ethyl-2-(((1S,2S)-2-hydroxycyclohexyl)amino)quinazolin-6-yl)pyrrolo[2,1-f][1,2,4]triazin-4-yl)benzenesulfonamide] | > 10000 nM | 100 to 1000 nM
5 | CCc1cc(-c2ccc3c(NS(=O)(=O)c4ccc(OC(F)F)cc4)ncnn23)cc2cnc(N[C@H]3CCCNC3)nc12 [Compound I-5, (S)-4-(difluoromethoxy)-N-(7-(8-ethyl-2-(piperidin-3-ylamino)quinazolin-6-yl)pyrrolo[2,1-f][1,2,4]triazin-4-yl)benzenesulfonamide] | 1000 to 10000 nM | < 100 nM
6 | CCc1cc(-c2cnc3c(NS(=O)(=O)c4ccccc4Cl)nccn23)cc2cnc(N[C@H]3CCCNC3)nc12 [Compound I-6, (S)-2-chloro-N-(3-(8-ethyl-2-(piperidin-3-ylamino)quinazolin-6-yl)imidazo[1,2-a]pyrazin-8-yl)benzenesulfonamide] | < 1000 nM | < 100 nM
7 | CCc1cc(-c2ccc3c(NS(=O)(=O)Cc4ccccc4)ncnn23)cc2cnc(N[C@H]3CCCNC3)nc12 [Compound I-7, (S)—N-(7-(8-ethyl-2-(piperidin-3-ylamino)quinazolin-6-yl)pyrrolo[2,1-f][1,2,4]triazin-4-yl)-1-phenylmethanesulfonamide] | < 1000 nM | < 100 nM
8 | CCc1cc(-c2ccc3c(NS(=O)(=O)c4ccccc4Cl)ncnn23)cc2cnc(NC[C@H]3CCCNC3)nc12 [Compound I-8, (S)-2-chloro-N-(7-(8-ethyl-2-((piperidin-3-ylmethyl)amino)quinazolin-6-yl)pyrrolo[2,1-f][1,2,4]triazin-4-yl)benzenesulfonamide] | 1000 to 10000 nM | < 100 nM
9 | CCc1cc(-c2ccc3c(NS(=O)(=O)CCC(F)(F)F)ncnn23)cc2cnc(N[C@H]3CCCNC3)nc12 [Compound I-9, (S)—N-(7-(8-ethyl-2-(piperidin-3-ylamino)quinazolin-6-yl)pyrrolo[2,1-f][1,2,4]triazin-4-yl)-3,3,3-trifluoropropane-1-sulfonamide] | 1000 to 10000 nM | < 100 nM
10 | CCc1cc(-c2ccc3c(NS(=O)(=O)c4ccccc4Cl)ncnn23)cc2cnc(N[C@H]3CCCC[C@H]3O)nc12 [Compound I-10, 2-chloro-N-(7-(8-ethyl-2-(((1S,2R)-2-hydroxycyclohexyl)amino)quinazolin-6-yl)pyrrolo[2,1-f][1,2,4]triazin-4-yl)benzenesulfonamide] | – | > 1000 nM

The remaining lines, values ahead:

Row | IC50 [1] | IC50 [2] | SMILES
11 | < 1000 nM | 100 to 1000 nM | CCc1cc(-c2ccc3c(NC(=O)NC4CC4)ncnn23)cc2cnc(NC3CCCNC3)nc12 (stereo in doubt) [Compound I-24, 3-cyclopropyl-1-(7-{8-ethyl-2-[(3R)-piperidin-3-ylamino]quinazolin-6-yl}pyrrolo[2,1-f][1,2,4]triazin-4-yl)urea]
12 | 1000 to 10000 nM | < 100 nM | CCc1cc(-c2ccc3c(NS(=O)(=O)c4ccccc4Cl)ncnn23)cc2cnc(N[C@H]3CCNC3)nc12 [Compound I-11, (S)-2-chloro-N-(7-(8-ethyl-2-(pyrrolidin-3-ylamino)quinazolin-6-yl)pyrrolo[2,1-f][1,2,4]triazin-4-yl)benzenesulfonamide]
13 | < 1000 nM | < 100 nM | CCc1cc(-c2ccc3c(NS(=O)(=O)c4ccccc4Cl)ncnn23)cc2cnc(N[C@H]3CCCCNC3)nc12 [Compound I-12, (S)—N-(7-(2-(azepan-3-ylamino)-8-ethylquinazolin-6-yl)pyrrolo[2,1-f][1,2,4]triazin-4-yl)-2-chlorobenzenesulfonamide]
14 | – | > 1000 nM | CCc1cc(-c2ccc3c(NS(=O)(=O)c4ccccc4Cl)ncnn23)cc2cnc(N[C@H]3CCCC[C@@H]3N)nc12 [Compound I-13, N-(7-(2-(((1S,2S)-2-aminocyclohexyl)amino)-8-ethylquinazolin-6-yl)pyrrolo[2,1-f][1,2,4]triazin-4-yl)-2-chlorobenzenesulfonamide]
15 | > 10000 nM | < 100 nM | CCc1cc(-c2ccc3c(NS(=O)(=O)c4ccccc4Cl)ncnn23)cc2cnc(N[C@H]3CC[C@H](O)C3)nc12 [Compound I-14, 2-chloro-N-(7-(8-ethyl-2-(((1S,3S)-3-hydroxycyclopentyl)amino)quinazolin-6-yl)pyrrolo[2,1-f][1,2,4]triazin-4-yl)benzenesulfonamide]
16 | < 1000 nM | < 100 nM | CCc1cc(-c2ccc3c(NS(=O)(=O)C4CCCC4)ncnn23)cc2cnc(N[C@H]3CCCNC3)nc12 [Compound I-15, (S)—N-(7-(8-ethyl-2-(piperidin-3-ylamino)quinazolin-6-yl)pyrrolo[2,1-f][1,2,4]triazin-4-yl)cyclopentanesulfonamide]
17 | > 10000 nM | 100 to 1000 nM | CCc1cc(-c2ccc3c(NS(=O)(=O)c4ccccc4Cl)ncnn23)cc2cnc(NC[C@@H]3CCCNC3)nc12 [Compound I-17, (R)-2-chloro-N-(7-(8-ethyl-2-((piperidin-3-ylmethyl)amino)quinazolin-6-yl)pyrrolo[2,1-f][1,2,4]triazin-4-yl)benzenesulfonamide]
18 | > 10000 nM | 100 to 1000 nM | CCc1cc(-c2ccc3c(NS(=O)(=O)c4ccccc4Cl)ncnn23)cc2cnc(NC[C@@H]3CCCCN3)nc12 [Compound I-18, (S)-2-chloro-N-(7-(8-ethyl-2-((piperidin-2-ylmethyl)amino)quinazolin-6-yl)pyrrolo[2,1-f][1,2,4]triazin-4-yl)benzenesulfonamide]
19 | < 1000 nM | < 100 nM | CCc1cc(-c2n[nH]c3c(NS(=O)(=O)c4ccccc4Cl)cccc23)cc2cnc(N[C@H]3CCCNC3)nc12 [Compound I-19, (S)-2-chloro-N-(3-(8-ethyl-2-(piperidin-3-ylamino)quinazolin-6-yl)-1H-indazol-7-yl)benzenesulfonamide]
20 | 1000 to 10000 nM | 100 to 1000 nM | CCc1cc(-c2ccc3c(NC[C@H](O)CC)ncnn23)cc2cnc(N[C@H]3CCCNC3)nc12 [Compound I-20, (R)-1-((7-(8-ethyl-2-(((S)-piperidin-3-yl)amino)quinazolin-6-yl)pyrrolo[2,1-f][1,2,4]triazin-4-yl)amino)butan-2-ol]
21 | < 1000 nM | < 100 nM | CCc1cc(-c2ccc3c(NS(=O)(=O)Cc4cccc(F)c4F)ncnn23)cc2cnc(N[C@H]3CCCNC3)nc12 [Compound I-21, (S)-1-(2,3-difluorophenyl)-N-(7-(8-ethyl-2-(piperidin-3-ylamino)quinazolin-6-yl)pyrrolo[2,1-f][1,2,4]triazin-4-yl)methanesulfonamide]
22 | < 1000 nM | < 100 nM | CCc1cc(-c2ccc3c(NS(=O)(=O)c4ccccc4Cl)ncnn23)cc2cnc(N[C@H]3CCCNC3)nc12 [Compound I-22, (S)-2-chloro-N-(7-(8-ethyl-2-(piperidin-3-ylamino)quinazolin-6-yl)pyrrolo[2,1-f][1,2,4]triazin-4-yl)benzenesulfonamide]
23 | 1000 to 10000 nM | < 100 nM | CCc1cc(-c2csc3c(NS(=O)(=O)c4ccccc4Cl)ncnc23)cc2cnc(N[C@H]3CCCNC3)nc12 [Compound I-23, (S)-2-chloro-N-(7-(8-ethyl-2-(piperidin-3-ylamino)quinazolin-6-yl)thieno[3,2-d]pyrimidin-4-yl)benzenesulfonamide]
24 | – | > 1000 nM | CCc1cc(-c2ccc3c(NS(=O)(=O)c4ccc(C(F)(F)F)cc4Cl)ncnn23)cc2cnc(N[C@H]3CCCNC3)nc12 [Compound I-34, (S)-2-chloro-N-(7-(8-ethyl-2-(piperidin-3-ylamino)quinazolin-6-yl)pyrrolo[2,1-f][1,2,4]triazin-4-yl)-4-(trifluoromethyl)benzenesulfonamide]
